Values of other authors, collected in patent US20100226886A1, “Combinations of MTP Inhibitors with Cholesterol Absorption Inhibitors or Interferon for Treating Hepatitis C” (priority 2007, published 2010).
Entries after “also recorded” stand apart in the source; their conditions may differ. Where two headings read alike, the source gives them in different places.

Columns and labels:
[1] = animal model for homozygous familial hypercholesterolemia; for example at 25 mg/day
[2] = in vivo
[3] = clinical studies, 80 mg/day or greater

Question: For `O=C(NC1CCN(CCCCC2(C(=O)NCC(F)(F)F)c3ccccc3-c3ccccc32)CC1)c1ccccc1-c1ccc(C(F)(F)F)cc1` [BMS-201038, N-(2,2,2-Trifluorethyl)-9-[4-[4-[[[4′-(trifluoromethyl) [1,1′biphenyl]-2-Yl]carbonyl]amino]-1-piperidinyl]butyl]9H-fluorene-9-carboxamide], which plasma cholesterol levels [1] is on record?
Answer: effectively reduced plasma cholesterol levels in a dose dependent manner

Question: What about the adverse events (25 mg/day) of the same compound?
Answer: gastrointestinal disturbances, abnormalities in liver function, and hepatic steatosis

Question: And the adverse events (25 mg/day, listed as AEGR-733)?
Answer: gastrointestinal disorders, abnormalities in liver function and/or hepatic steatosis

Question: Which “side effects in patients” value [2] does the source give for Alpha interferon here?
Answer: multiple neuropsychiatric effects

Question: For `Cc1cc(C)c2c3ccccc3n(Cc3ccc([C@@H](C(=O)N[C@H](CO)c4ccccc4)C4CCCC4)cc3)c2n1` [implitapide, (2S)-2-cyclopentyl-2-[4-[(2,4-dimethyl-9H-pyrido[2,3-b]indol-9-yl)methyl]phenyl]-N-[(1S)-2-hydroxy-1-phenylethyl]ethanamide], which adverse events (80 mg/day or greater (80 mg/day and 160 mg/day)) is on record?
Answer: gastrointestinal disturbances, abnormalities in liver function, and hepatic steatosis; also recorded: gastrointestinal disorders, abnormalities in liver function and/or hepatic steatosis

Question: And the efficacy for hypercholesterolemia [3]?
Answer: therapeutically effective for hypercholesterolemia

Question: For `NC(=O)c1ncn([C@@H]2O[C@H](CO)[C@@H](O)[C@H]2O)n1` [ribavirin], which “increase of sustained response rate” value (HCV; ribavirin added to interferon or peginterferon) is on record?
Answer: two- to three-fold

Question: And the “effect on HCV” value (HCV; ribavirin by itself)?
Answer: little effect on HCV

Question: What about the “side effects in patients” value [2] of the same compound?
Answer: red cell haemolysis to a variable degree in almost all patients
